Assay results published in US6737383B1, “Herbicidal oxadiazolidines” (priority 1999, dated 2004).

Key:
[1] = tested on: rape; experiment: Test B pre/postemergence rape; type: in vivo, Brassica napus
In short: (§1)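 Test chemicals in a non-phytotoxic solvent mixture with surfactant were sprayed preemergence onto planted seeds and postemergence onto plants 2 to 18 cm tall (1- to 4-leaf stage). After twelve to sixteen days in a greenhouse, injury was visually rated against untreated controls from 0 (no effect) to 10 (complete control).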

[2] = tested on: duck salad; experiment: Test B flood test duck salad; type: in vivo, Heteranthera limosa
In short: (§2)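 Each value is a visual injury score relative to controls, with 10 meaning complete control and 0 no effect. Evaluation took place twelve to sixteen days after the 2-leaf-stage plants were treated and kept in the greenhouse.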

[3] = tested on: pigweed; experiment: Test B pre/postemergence pigweed; type: in vivo, Amaranthus retroflexus
In short: as §1

[4] = tested on: purple nutsedge; experiment: Test B pre/postemergence purple nutsedge; type: in vivo, Cyperus rotundus
In short: as §1

[5] = tested on: rice; experiment: Test B flood test rice; type: in vivo, Oryza sativa
In short: as §2

[6] = tested on: sugar beet; experiment: Test B pre/postemergence sugar beet; type: in vivo, Beta vulgaris
In short: as §1

[7] = tested on: soybean; experiment: Test B pre/postemergence soybean; type: in vivo, Glycine max
In short: as §1

[8] = tested on: giant foxtail; experiment: Test B pre/postemergence giant foxtail; type: in vivo, Setaria faberii
In short: as §1

[9] = tested on: cocklebur; experiment: Test B pre/postemergence cocklebur; type: in vivo, Xanthium strumarium
In short: as §1

[10] = tested on: wild oat; experiment: Test B pre/postemergence wild oat; type: in vivo, Avena fatua
In short: as §1

[11] = tested on: velvetleaf; experiment: Test B pre/postemergence velvetleaf; type: in vivo, Abutilon theophrasti
In short: as §1

[12] = tested on: wheat; experiment: Test B pre/postemergence wheat; type: in vivo, Triticum aestivum
In short: as §1

[13] = tested on: corn; experiment: Test B pre/postemergence corn; type: in vivo, Zea mays
In short: as §1

[14] = tested on: bamyardgrass; experiment: Test B flood test barnyardgrass; type: in vivo, Echinochloa crus-galli
In short: as §2

[15] = tested on: morningglory; experiment: Test B pre/postemergence morningglory; type: in vivo, Ipomoea hederacea
In short: as §1

[16] = tested on: crabgrass; experiment: Test B pre/postemergence crabgrass; type: in vivo, Digitaria sanguinalis
In short: as §1

[17] = Preemergence, Rate 62 g/ha, scale of 0 to 10 where 0 is no effect and 10 is complete control
[18] = Preemergence, Rate 250 g/ha, scale of 0 to 10 where 0 is no effect and 10 is complete control
[19] = Preemergence, Rate 500 g/ha, scale of 0 to 10 where 0 is no effect and 10 is complete control
[20] = Rate 62 g/ha, Postemergence, scale 0 to 10 (0 no effect, 10 complete control)
[21] = Rate 125 g/ha, Postemergence, scale of 0 to 10 where 0 is no effect and 10 is complete control
[22] = Rate 125 g/ha, Preemergence, scale of 0 to 10 where 0 is no effect and 10 is complete control
[23] = Rate 250 g/ha, Postemergence, scale of 0 to 10 where 0 is no effect and 10 is complete control
[24] = Rate 62 g/ha, headed Pre-emergence (flood test species), scale 0 to 10 (0 no effect, 10 complete control)
[25] = Rate 125 g/ha, Pre-emergence, flood test species, scale 0 to 10 where 0 is no effect and 10 is complete control
[26] = Rate 250 g/ha, Pre-emergence, flood-test species, scale 0 to 10, 0 is no effect, 10 is complete control
[27] = Rate 500 g/ha, Pre-emergence, flood test species, scale 0 to 10 (0 no effect, 10 complete control)
[28] = Rate 500 g/ha, Postemergence, scale 0 to 10, 0 no effect, 10 complete control
[29] = Rate 62 g/ha, Postemergence, scale of 0 to 10 where 0 is no effect and 10 is complete control
[30] = Rate 125 g/ha, Postemergence, scale 0 to 10

CCN(CC)C(=O)n1oc(=O)n(C2CC2)c1=O [Compound 297]
Rape plant response rating [1, 17]: 0 | Rape plant response rating [1, 18]: 0 | Plant response rating, Rape [1, 19]: 0 | Rape plant response rating [1, 20]: 0 | Rape plant response rating [1, 21]: 0 | Rape plant response rating [1, 22]: 0 | Plant response rating, Rape [1, 23]: 0 | Ducksalad plant response rating [2, 24]: 0 | Ducksalad plant response rating [2, 25]: 0 | Ducksalad plant response rating [2, 26]: 0 | Ducksalad plant response rating [2, 27]: 0 | Redroot pigweed plant response rating [3, 17]: 0 | Redroot pigweed plant response rating [3, 18]: 0 | Plant response rating, Redroot pigweed [3, 19]: 0 | Redroot pigweed plant response rating [3, 20]: 0 | Redroot pigweed plant response rating [3, 21]: 0 | Redroot pigweed plant response rating [3, 22]: 0 | Plant response rating, Redroot pigweed [3, 23]: 0 | Nutsedge plant response rating [4, 18]: 0 | Plant response rating, Nutsedge [4, 19]: 0 | Nutsedge plant response rating [4, 20]: 0 | Nutsedge plant response rating [4, 21]: 0 | Nutsedge plant response rating [4, 22]: 0 | Plant response rating, Nutsedge [4, 23]: 0 | Rice plant response rating [5, 24]: 0 | Rice plant response rating [5, 25]: 0 | Rice plant response rating [5, 26]: 0 | Rice plant response rating [5, 27]: 0 | Sugarbeets plant response rating [6, 17]: 0 | Sugarbeets plant response rating [6, 18]: 0 | Plant response rating, Sugarbeets [6, 19]: 0 | Sugarbeets plant response rating [6, 20]: 0 | Sugarbeets plant response rating [6, 21]: 0 | Sugarbeets plant response rating [6, 22]: 0 | Plant response rating, Sugarbeets [6, 23]: 0 | Soybean plant response rating [7, 17]: 0 | Soybean plant response rating [7, 18]: 0 | Plant response rating, Soybean [7, 19]: 0 | Soybean plant response rating [7, 20]: 2 | Soybean plant response rating [7, 21]: 3 | Soybean plant response rating [7, 22]: 0 | Plant response rating, Soybean [7, 23]: 3 | Giant foxtail plant response rating [8, 17]: 0 | Giant foxtail plant response rating [8, 18]: 7 | Plant response rating, Giant foxtail [8, 19]: 7 | Giant foxtail plant response rating [8, 20]: 0 | Giant foxtail plant response rating [8, 21]: 0 | Giant foxtail plant response rating [8, 22]: 0 | Plant response rating, Giant foxtail [8, 23]: 0 | Cocklebur plant response rating [9, 17]: 0 | Cocklebur plant response rating [9, 18]: 0 | Plant response rating, Cocklebur [9, 19]: 0 | Cocklebur plant response rating [9, 20]: 0 | Cocklebur plant response rating [9, 21]: 0 | Cocklebur plant response rating [9, 22]: 0 | Plant response rating, Cocklebur [9, 23]: 0 | Cocklebur plant response rating [9, 28]: 0 | Wild oats plant response rating [10, 17]: 0 | Wild oats plant response rating [10, 18]: 0 | Plant response rating, Wild oats [10, 19]: 0 | Wild oats plant response rating [10, 20]: 0 | Wild oats plant response rating [10, 21]: 0 | Plant response rating, Wild oats [10, 23]: 0 | Velvetleaf plant response rating [11, 17]: 0 | Velvetleaf plant response rating [11, 18]: 0 | Plant response rating, Velvetleaf [11, 19]: 0 | Velvetleaf plant response rating [11, 20]: 0 | Velvetleaf plant response rating [11, 21]: 0 | Velvetleaf plant response rating [11, 22]: 0 | Plant response rating, Velvetleaf [11, 23]: 0 | Wheat plant response rating [12, 17]: 0 | Wheat plant response rating [12, 18]: 0 | Plant response rating, Wheat [12, 19]: 0 | Wheat plant response rating [12, 20]: 0 | Wheat plant response rating [12, 21]: 0 | Wheat plant response rating [12, 22]: 0 | Plant response rating, Wheat [12, 23]: 0 | Corn plant response rating [13, 17]: 0 | Corn plant response rating [13, 18]: 0 | Plant response rating, Corn [13, 19]: 0 | Corn plant response rating [13, 20]: 0 | Corn plant response rating [13, 21]: 0 | Corn plant response rating [13, 22]: 0 | Plant response rating, Corn [13, 23]: 0 | Corn plant response rating [13, 28]: 0 | Barnyardgrass plant response rating [14, 24]: 0 | Barnyardgrass plant response rating [14, 25]: 0 | Barnyardgrass plant response rating [14, 26]: 0 | Barnyardgrass plant response rating [14, 27]: 0 | Morningglory plant response rating [15, 17]: 0 | Morningglory plant response rating [15, 18]: 0 | Plant response rating, Morningglory [15, 19]: 0 | Morningglory plant response rating [15, 20]: 0 | Morningglory plant response rating [15, 21]: 0 | Morningglory plant response rating [15, 22]: 0 | Plant response rating, Morningglory [15, 23]: 0 | Crabgrass plant response rating [16, 17]: 0 | Crabgrass plant response rating [16, 18]: 7 | Plant response rating, Crabgrass [16, 19]: 7 | Crabgrass plant response rating [16, 20]: 0 | Crabgrass plant response rating [16, 21]: 0 | Crabgrass plant response rating [16, 22]: 2 | Plant response rating, Crabgrass [16, 23]: 0

CC(C)N(C(=O)n1oc(=O)n(C2CC2)c1=O)c1ccc(Cl)cc1 [Compound 241]
Rape plant response rating [1, 17]: 0 | Rape plant response rating [1, 18]: 5 | Plant response rating, Rape [1, 19]: 9 | Rape plant response rating [1, 29]: 0 | Rape plant response rating [1, 22]: 0 | Plant response rating (0 to 10; 0 is no effect, 10 is complete control), Rape ([1]; Rate 250 g/ha, Postemergence): 2 | Rape plant response rating [1, 28]: 4 | Ducksalad plant response rating [2, 24]: 0 | Ducksalad plant response rating [2, 25]: 0 | Ducksalad plant response rating [2, 26]: 0 | Ducksalad plant response rating [2, 27]: 0 | Redroot pigweed plant response rating [3, 17]: 0 | Redroot pigweed plant response rating [3, 18]: 9 | Plant response rating, Redroot pigweed [3, 19]: 10 | Redroot pigweed plant response rating [3, 29]: 0 | Redroot pigweed plant response rating [3, 22]: 0 | Plant response rating (0 to 10; 0 is no effect, 10 is complete control), Redroot pigweed ([3]; Rate 250 g/ha, Postemergence): 0 | Redroot pigweed plant response rating [3, 28]: 7 | Nutsedge plant response rating [4, 18]: 10 | Plant response rating, Nutsedge [4, 19]: 10 | Nutsedge plant response rating [4, 29]: 0 | Nutsedge plant response rating [4, 22]: 0 | Plant response rating (0 to 10; 0 is no effect, 10 is complete control), Nutsedge ([4]; Rate 250 g/ha, Postemergence): 0 | Nutsedge plant response rating [4, 28]: 6 | Rice plant response rating [5, 24]: 0 | Rice plant response rating [5, 25]: 0 | Rice plant response rating [5, 26]: 0 | Rice plant response rating [5, 27]: 0 | Sugarbeets plant response rating [6, 17]: 0 | Sugarbeets plant response rating [6, 18]: 6 | Plant response rating, Sugarbeets [6, 19]: 6 | Sugarbeets plant response rating [6, 29]: 0 | Sugarbeets plant response rating [6, 22]: 0 | Sugarbeets plant response rating [6, 28]: 5 | Soybean plant response rating [7, 17]: 0 | Soybean plant response rating [7, 18]: 0 | Plant response rating, Soybean [7, 19]: 4 | Soybean plant response rating [7, 29]: 1 | Soybean plant response rating [7, 22]: 0 | Soybean plant response rating [7, 28]: 4 | Giant foxtail plant response rating [8, 17]: 10 | Giant foxtail plant response rating [8, 18]: 10 | Plant response rating, Giant foxtail [8, 19]: 10 | Giant foxtail plant response rating [8, 29]: 2 | Giant foxtail plant response rating [8, 22]: 10 | Plant response rating (0 to 10; 0 is no effect, 10 is complete control), Giant foxtail ([8]; Rate 250 g/ha, Postemergence): 6 | Giant foxtail plant response rating [8, 28]: 8 | Cocklebur plant response rating [9, 17]: 0 | Cocklebur plant response rating [9, 18]: 0 | Plant response rating, Cocklebur [9, 19]: 0 | Cocklebur plant response rating [9, 29]: 0 | Cocklebur plant response rating [9, 30]: 0 | Cocklebur plant response rating [9, 22]: 0 | Plant response rating (0 to 10; 0 is no effect, 10 is complete control), Cocklebur ([9]; Rate 250 g/ha, Postemergence): 1 | Cocklebur plant response rating [9, 28]: 1 | Wild oats plant response rating [10, 17]: 3 | Wild oats plant response rating [10, 18]: 8 | Plant response rating, Wild oats [10, 19]: 8 | Wild oats plant response rating [10, 29]: 0 | Wild oats plant response rating [10, 22]: 5 | Wild oats plant response rating [10, 28]: 2 | Velvetleaf plant response rating [11, 17]: 2 | Velvetleaf plant response rating [11, 18]: 5 | Plant response rating, Velvetleaf [11, 19]: 7 | Velvetleaf plant response rating [11, 29]: 2 | Velvetleaf plant response rating [11, 22]: 5 | Velvetleaf plant response rating [11, 28]: 1 | Wheat plant response rating [12, 17]: 0 | Wheat plant response rating [12, 18]: 3 | Plant response rating, Wheat [12, 19]: 5 | Wheat plant response rating [12, 29]: 0 | Wheat plant response rating [12, 22]: 0 | Wheat plant response rating [12, 28]: 8 | Corn plant response rating [13, 17]: 0 | Corn plant response rating [13, 18]: 0 | Plant response rating, Corn [13, 19]: 5 | Corn plant response rating [13, 29]: 0 | Corn plant response rating [13, 30]: 0 | Corn plant response rating [13, 22]: 0 | Plant response rating (0 to 10; 0 is no effect, 10 is complete control), Corn ([13]; Rate 250 g/ha, Postemergence): 0 | Corn plant response rating [13, 28]: 0 | Barnyardgrass plant response rating [14, 24]: 0 | Barnyardgrass plant response rating [14, 25]: 0 | Barnyardgrass plant response rating [14, 26]: 0 | Barnyardgrass plant response rating [14, 27]: 0 | Morningglory plant response rating [15, 17]: 0 | Morningglory plant response rating [15, 18]: 3 | Plant response rating, Morningglory [15, 19]: 5 | Morningglory plant response rating [15, 29]: 3 | Morningglory plant response rating [15, 22]: 0 | Plant response rating (0 to 10; 0 is no effect, 10 is complete control), Morningglory ([15]; Rate 250 g/ha, Postemergence): 5 | Morningglory plant response rating [15, 28]: 8 | Crabgrass plant response rating [16, 17]: 3 | Crabgrass plant response rating [16, 18]: 10 | Plant response rating, Crabgrass [16, 19]: 10 | Crabgrass plant response rating [16, 29]: 2 | Crabgrass plant response rating [16, 22]: 7 | Plant response rating (0 to 10; 0 is no effect, 10 is complete control), Crabgrass ([16]; Rate 250 g/ha, Postemergence): 8 | Crabgrass plant response rating [16, 28]: 9
